In this assay the target is T1, human CTPS1 (Homo sapiens, UniProt P17812).
T1 sequence (P17812 1-591): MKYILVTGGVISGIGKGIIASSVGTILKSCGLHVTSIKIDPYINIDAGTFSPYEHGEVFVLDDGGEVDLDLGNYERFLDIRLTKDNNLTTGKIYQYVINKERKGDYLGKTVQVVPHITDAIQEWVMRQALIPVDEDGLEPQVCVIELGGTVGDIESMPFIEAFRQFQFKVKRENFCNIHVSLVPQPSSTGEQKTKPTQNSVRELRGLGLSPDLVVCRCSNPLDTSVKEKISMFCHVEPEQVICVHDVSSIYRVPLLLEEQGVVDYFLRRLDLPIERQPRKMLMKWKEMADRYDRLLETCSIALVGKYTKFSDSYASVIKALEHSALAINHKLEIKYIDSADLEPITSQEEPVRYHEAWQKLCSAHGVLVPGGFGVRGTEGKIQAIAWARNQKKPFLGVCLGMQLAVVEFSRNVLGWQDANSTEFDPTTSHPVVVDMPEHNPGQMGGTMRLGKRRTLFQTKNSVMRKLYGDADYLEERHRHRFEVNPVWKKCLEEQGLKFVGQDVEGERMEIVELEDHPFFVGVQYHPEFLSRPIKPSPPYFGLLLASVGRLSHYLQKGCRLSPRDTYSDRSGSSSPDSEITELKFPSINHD
The experiment in a line: ADP-Glo assay, human CTPS1 enzyme inhibition. The class given is biochemical. Particulars: wild-type human CTPS1, 25 nM enzyme; ADP-Glo; read-out: ADP-Glo_WT_hCTPS1—25 nM_IC50 (IC50). In a few lines: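 Full-length tagged human CTPS1 (25 nM) pre-incubated 10 min at 25° C with compound, then 10 min with ATP (120 μM) and UTP (160 μM); reaction started with L-glutamine (100 μM) and GTP (60 μM), 1% DMSO, in HEPES pH 7.4, 10 mM Mg2+, 5 mM KCl, 2 mM DTT. Run within linear phase at 25° C; ADP measured by ADP-Glo luminescence.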
On the technique in general: In ADP-Glo the light output rises with the ADP produced.

This is an account of results in US20250270200A1, “CTPS1 INHIBITORS AND USES THEREOF” (Nimbus Clotho, Inc., priority 2022, published 2025).

pIC50: −log10 of the molar value. Where a name gives a salt, the structure may show the parent alone. Bounds are passed on as bounds.

Usually pIC50 stands for −log10 of the IC50, conventionally taken in molar units. `CCOc1cncc(-c2cnc(C(=O)N[C@H](CN3CCCC3)c3cc(NS(=O)(=O)C4CC4)ncn3)s2)n1` [I-251, (R)-N-(1-(6-(cyclopropanesulfonamido)pyrimidin-4-yl)-2-(pyrrolidin-1-yl)ethyl)-5-(6-ethoxypyrazin-2-yl)thiazole-2-carboxamide]: the pIC50 is 7.30 to 7.60.

As to `CCOc1cncc(-c2cnc(C(=O)N[C@@H](CN3C[C@H]4C[C@@H]3CO4)c3cncc(NS(=O)(=O)C4CC4)n3)s2)n1` [I-252, N-((S)-2-((1R,4R)-2-oxa-5-azabicyclo[2.2.1]heptan-5-yl)-1-(6-(cyclopropanesulfonamido)pyrazin-2-yl)ethyl)-5-(6-ethoxypyrazin-2-yl)thiazole-2-carboxamide, formic acid salt], the pIC50 is 7.30 to 7.60.

For the compound `CCOc1cncc(-c2cnc(C(=O)N[C@H](CN3C[C@H]4C[C@@H]3CO4)c3cncc(NS(=O)(=O)C4CC4)n3)s2)n1` [I-253, N-((R)-2-((1R,4R)-2-oxa-5-azabicyclo[2.2.1]heptan-5-yl)-1-(6-(cyclopropanesulfonamido)pyrazin-2-yl)ethyl)-5-(6-ethoxypyrazin-2-yl)thiazole-2-carboxamide, formic acid salt], the pIC50 is 7.00 to 7.30.

For `CCOc1cncc(-c2cnc(C(=O)N[C@H](c3cc(NS(=O)(=O)C4CC4)ncn3)[C@@H]3CCOC3)s2)n1` [I-256, N-((S)-(6-(cyclopropanesulfonamido)pyrimidin-4-yl)((S)-tetrahydrofuran-3-yl)methyl)-5-(6-ethoxypyrazin-2-yl)thiazole-2-carboxamide], the pIC50 was 7.60 to 8.30.

For the compound `CCOc1cncc(-c2cnc(C(=O)N[C@@H](c3cc(NS(=O)(=O)C4CC4)ncn3)[C@@H]3CCOC3)s2)n1` [I-257, N-((R)-(6-(cyclopropanesulfonamido)pyrimidin-4-yl)((S)-tetrahydrofuran-3-yl)methyl)-5-(6-ethoxypyrazin-2-yl)thiazole-2-carboxamide], the pIC50 is 7.60 to 8.30.

`CCOc1cncc(-c2cnc(C(=O)N[C@@H](c3cc(NS(=O)(=O)C4CC4)ncn3)[C@H]3CCOC3)s2)n1` [I-258, N-((R)-(6-(cyclopropanesulfonamido)pyrimidin-4-yl)((R)-tetrahydrofuran-3-yl)methyl)-5-(6-ethoxypyrazin-2-yl)thiazole-2-carboxamide]: the pIC50 is 7.60 to 8.30.

In the case of `CCOc1cncc(-c2cnc(C(=O)N[C@H](c3cc(NS(=O)(=O)C4CC4)ncn3)[C@H]3CCOC3)s2)n1` [I-259, N-((S)-(6-(cyclopropanesulfonamido)pyrimidin-4-yl)((R)-tetrahydrofuran-3-yl)methyl)-5-(6-ethoxypyrazin-2-yl)thiazole-2-carboxamide], the pIC50 was 7.60 to 8.30.

Take `O=C(N[C@H](c1ccnc(NS(=O)(=O)C2CC2)n1)[C@H]1CCOC1)c1ncc(-c2cnn3ccc(Cl)cc23)s1` [I-260, 5-(5-chloropyrazolo[1,5-a]pyridin-3-yl)-N-((S)-(2-(cyclopropanesulfonamido)pyrimidin-4-yl)((R)-tetrahydrofuran-3-yl)methyl)thiazole-2-carboxamide]: the pIC50 was 7.60 to 8.30.

Consider `O=C(N[C@H](c1ccnc(NS(=O)(=O)C2CC2)n1)[C@@H]1CCOC1)c1ncc(-c2cnn3ccc(Cl)cc23)s1` [I-261, 5-(5-chloropyrazolo[1,5-a]pyridin-3-yl)-N-((S)-(2-(cyclopropanesulfonamido)pyrimidin-4-yl)((S)-tetrahydrofuran-3-yl)methyl)thiazole-2-carboxamide], for which the pIC50 is 7.60 to 8.30.

For the compound `CCOc1cncc(-c2cnc(C(=O)N[C@@H](CO)c3cc(NS(=O)(=O)C4CC4)ccn3)s2)n1` [I-262, (R)-N-(1-(4-(cyclopropanesulfonamido)pyridin-2-yl)-2-hydroxyethyl)-5-(6-ethoxypyrazin-2-yl)thiazole-2-carboxamide], the pIC50 was 7.30 to 7.60.

Turning to `CCOc1cncc(-c2cnc(C(=O)N[C@H](CO)c3cc(NS(=O)(=O)C4CC4)ccn3)s2)n1` [I-263, (S)-N-(1-(4-(cyclopropanesulfonamido)pyridin-2-yl)-2-hydroxyethyl)-5-(6-ethoxypyrazin-2-yl)thiazole-2-carboxamide], the negative logarithm of the IC50 (pIC50) was 7.60 to 8.30.

As to `CCOc1cncc(-c2cnc(C(=O)N[C@H](c3cc(NS(=O)(=O)C4CC4)ccn3)[C@@H](C)O)s2)n1` [I-264, N-((1R,2R)-1-(4-(cyclopropanesulfonamido)pyridin-2-yl)-2-hydroxypropyl)-5-(6-ethoxypyrazin-2-yl)thiazole-2-carboxamide], the pIC50 is 7.60 to 8.30.

For `CCOc1cncc(-c2cnc(C(=O)N[C@@H](c3cc(NS(=O)(=O)C4CC4)ccn3)[C@@H](C)O)s2)n1` [I-265, N-((1S,2R)-1-(4-(cyclopropanesulfonamido)pyridin-2-yl)-2-hydroxypropyl)-5-(6-ethoxypyrazin-2-yl)thiazole-2-carboxamide], the pIC50 is 7.60 to 8.30.

Take `CCOc1cncc(-c2cnc(C(=O)N[C@H](c3cc(NS(=O)(=O)C4CC4)ccn3)[C@H](C)O)s2)n1` [I-266, N-((1R,2S)-1-(4-(cyclopropanesulfonamido)pyridin-2-yl)-2-hydroxypropyl)-5-(6-ethoxypyrazin-2-yl)thiazole-2-carboxamide]: the pIC50 was 7.60 to 8.30.

With `CCOc1cncc(-c2cnc(C(=O)N[C@H](c3cc(NS(=O)(=O)C4CC4)ccn3)[C@@H](C)O)s2)n1` [I-267, N-((1R,2R)-1-(4-(cyclopropanesulfonamido)pyridin-2-yl)-2-hydroxypropyl)-5-(6-ethoxypyrazin-2-yl)thiazole-2-carboxamide], the pIC50 was 7.60 to 8.30.

As for `CCOc1cncc(-c2cnc(C(=O)N[C@H](COC)c3ccnc(NS(=O)(=O)C4CC4)n3)s2)n1` [I-268, (S)-N-(1-(2-(cyclopropanesulfonamido)pyrimidin-4-yl)-2-methoxyethyl)-5-(6-ethoxypyrazin-2-yl)thiazole-2-carboxamide], the pIC50 was 7.30 to 7.60.

For `CCOc1cncc(-c2cnc(C(=O)N[C@@H](c3cc(NS(=O)(=O)C4CC4)ccn3)[C@@H](C)O)s2)n1` [I-269, N-((1S,2R)-1-(4-(cyclopropanesulfonamido)pyridin-2-yl)-2-hydroxypropyl)-5-(6-ethoxypyrazin-2-yl)thiazole-2-carboxamide], the pIC50 is no less than 8.30.

As to `CCOc1cncc(-c2cnc(C(=O)N[C@@H](c3cc(NS(=O)(=O)C4CC4)ccn3)[C@H](C)O)s2)n1` [I-270, N-((1S,2S)-1-(4-(cyclopropanesulfonamido)pyridin-2-yl)-2-hydroxypropyl)-5-(6-ethoxypyrazin-2-yl)thiazole-2-carboxamide], the pIC50 was no less than 8.30.

On to `C[C@@H](O)[C@H](NC(=O)c1ncc(-c2cnn3ccc(Cl)cc23)s1)c1cc(NS(=O)(=O)C2CC2)ccn1` [I-271, 5-(5-chloropyrazolo[1,5-a]pyridin-3-yl)-N-((1R,2R)-1-(4-(cyclopropanesulfonamido)pyridin-2-yl)-2-hydroxypropyl)thiazole-2-carboxamide], for which the pIC50 is 7.60 to 8.30.

Consider `C[C@H](O)[C@H](NC(=O)c1ncc(-c2cnn3ccc(Cl)cc23)s1)c1cc(NS(=O)(=O)C2CC2)ccn1` [I-272, 5-(5-chloropyrazolo[1,5-a]pyridin-3-yl)-N-((1R,2S)-1-(4-(cyclopropanesulfonamido)pyridin-2-yl)-2-hydroxypropyl)thiazole-2-carboxamide], for which the pIC50 is 7.60 to 8.30.

As to `C[C@H](O)[C@@H](NC(=O)c1ncc(-c2cnn3ccc(Cl)cc23)s1)c1cc(NS(=O)(=O)C2CC2)ccn1` [I-273, 5-(5-chloropyrazolo[1,5-a]pyridin-3-yl)-N-((1S,2S)-1-(4-(cyclopropanesulfonamido)pyridin-2-yl)-2-hydroxypropyl)thiazole-2-carboxamide], the pIC50 is 7.60 to 8.30.

`C[C@@H](O)[C@@H](NC(=O)c1ncc(-c2cnn3ccc(Cl)cc23)s1)c1cc(NS(=O)(=O)C2CC2)ccn1` [I-274, 5-(5-chloropyrazolo[1,5-a]pyridin-3-yl)-N-((1S,2R)-1-(4-(cyclopropanesulfonamido)pyridin-2-yl)-2-hydroxypropyl)thiazole-2-carboxamide]: the pIC50 is 7.60 to 8.30.

As to `CCOc1cncc(-c2cnc(C(=O)N[C@@H](c3cc(NS(=O)(=O)C4CC4)ccn3)C(C)(C)O)s2)n1` [I-275, (S)-N-(1-(4-(cyclopropanesulfonamido)pyridin-2-yl)-2-hydroxy-2-methylpropyl)-5-(6-ethoxypyrazin-2-yl)thiazole-2-carboxamide], the pIC50 is 7.30 to 7.60.

Take `CCOc1cncc(-c2cnc(C(=O)N[C@H](c3cc(NS(=O)(=O)C4CC4)ccn3)C(C)(C)O)s2)n1` [I-276, (R)-N-(1-(4-(cyclopropanesulfonamido)pyridin-2-yl)-2-hydroxy-2-methylpropyl)-5-(6-ethoxypyrazin-2-yl)thiazole-2-carboxamide]: the pIC50 was 7.60 to 8.30.

With `CC(C)(O)[C@H](NC(=O)c1ncc(-c2cnn3ccc(Cl)cc23)s1)c1cc(NS(=O)(=O)C2CC2)ccn1` [I-277, (R)-5-(5-chloropyrazolo[1,5-a]pyridin-3-yl)-N-(1-(4-(cyclopropanesulfonamido)pyridin-2-yl)-2-hydroxy-2-methylpropyl)thiazole-2-carboxamide], the pIC50 was 7.00 to 7.30.
